Source: patent publication US20230047825A1, “ANTIMICROBIAL PEPTIDES” (priority 2019, published 2023)
≈ marks a conversion by molar mass, not a printed value. Like-named read-outs stand apart in the source and are kept apart here. Marks after values point to notes of the source that are not given here. Where a SMILES comes first, the peptide text is derived from it.

How the values were obtained:
[1] = tested on: Klebsiella pneumoniae NCTC 13368; format: cell-based; settings: KP13368, in µg/mL; for MIC on initial panels: medium and unit not given; for MIC: untitled table, medium/unit not given, values match RPMI of Table 2
Klebsiella pneumoniae M6 = format: cell-based; settings: for MIC on initial panels: medium and unit not given, in µg/mL; for MIC: untitled table, medium/unit not given, values match RPMI of Table 2, in µg/mL
[2] = tested on: Acinetobacter baumannii AYE; format: cell-based; settings: AYE; for MIC on initial panels: medium and unit not given; for MIC on initial panels / MIC: in µg/mL; for MIC: untitled table, medium/unit not given, values match RPMI of Table 2
[3] = tested on: Acinetobacter baumannii ATCC 17978; format: cell-based; settings: in µg/mL; for MIC on initial panels / MIC: AB17978; for MIC on initial panels: medium and unit not given; for MIC: untitled table, medium/unit not given, values match RPMI of Table 2; for MIC, Stability in serum (MH): Ab17978
[4] = tested on: Pseudomonas aeruginosa NCTC 13437; experiment: Antibacterial activity assay (broth microdilution MIC); format: cell-based; settings: PA13437, in µg/mL; for MIC on initial panels: medium and unit not given; for MIC: untitled table, medium/unit not given, values match RPMI of Table 2
[5] = tested on: Escherichia coli NCTC 12923; format: cell-based; settings: for MIC, Stability in serum (MH) / MIC on initial panels / MIC: EC12923; for MIC on initial panels: medium and unit not given; for MIC on initial panels / MIC: in µg/mL; for MIC: untitled table, medium/unit not given, values match RPMI of Table 2
[6] = tested on: MS Staphylococcus aureus ATCC 9144; format: cell-based; settings: for MIC on initial panels / MIC: MSSA9144; for MIC on initial panels: medium and unit inferred; for MIC: untitled table, medium/unit not given, values match RPMI of Table 2, in µg/mL
[7] = tested on: EMR Staphylococcus aureus-15 (EMRSA-15); format: cell-based; settings: for MIC on initial panels / MIC: EMRSA15; for MIC on initial panels: medium and unit inferred; for MIC: untitled table, medium/unit inferred, values match RPMI of Table 2; for MIC, Peptide concentration: Mueller-Hinton broth
[8] = tested on: EMR Staphylococcus aureus-16 (EMRSA-16); format: cell-based; settings: EMRSA16; for MIC on initial panels: medium and unit not given, in µg/mL; for MIC: untitled table, medium/unit inferred, values match RPMI of Table 2
[9] = tested on: VS Enterococcus faecalis NCTC 775; experiment: Antibacterial activity assay (broth microdilution MIC); format: cell-based; settings: for MIC, Peptide concentration: Mueller-Hinton broth; for MIC on initial panels: VSE775, medium and unit not given, in µg/mL
[10] = tested on: VR Enterococcus faecium NCTC 12204; experiment: as above; format: cell-based; settings: VRE12204, in µg/mL; for MIC on initial panels: medium and unit not given; for MIC: untitled table, medium/unit not given, values match RPMI of Table 2
VRE12201 = experiment: as above; format: cell-based, Enterococcus faecalis; settings: medium and unit inferred
Text: Antibacterial activity assay.
The bacterial strains used are as in the above examples. A table of strains is provided below to aid understanding.

HEK293 = experiment: Cytotoxicity assay (XTT); format: cell-based, human; settings: for Toxicity HEK293: unit not given; for Toxicity HEK293 (EC50), Peptide concentration: value printed in parentheses
How it was run: (§1)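 Cells seeded 24 h in EMEM with 10% FBS and NEAA at 37 °C, 10% CO2, then medium replaced with peptide dilutions. After a further 24 h exposure, viability read by XTT tetrazolium staining.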

HeLa = experiment: Cytotoxicity assay (XTT); format: cell-based, human; set-up: Toxicity HeLa: unit not given beside the values; settings: for Toxicity HeLa: unit not given; for Toxicity HeLa (EC50), Peptide concentration: value printed in parentheses
How it was run: as §1

human red blood cells = experiment: Haemolysis assay; settings: for Toxicity HC50, Peptide concentration: red cells of human, 1 h
How it was run: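 Peptide titrations in PBS incubated with fresh human red blood cells for 1 h at 37 C; supernatant OD550 read after removing intact cells. % haemolysis scaled between PBS-only (0%) and 0.1% Triton-X-100 (100%) controls; mean and SE of three biological replicates.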

CC(C)C[C@H](NC(=O)[C@H](Cc1ccc(O)cc1)NC(=O)[C@H](Cc1c[nH]cn1)NC(=O)[C@@H](NC(=O)[C@H](CC(C)C)NC(=O)[C@H](C)NC(=O)[C@H](C)NC(=O)[C@H](CCCCN)NC(=O)CNC(=O)[C@H](C)NC(=O)[C@H](Cc1c[nH]cn1)NC(=O)[C@H](CCCCN)NC(=O)CNC(=O)[C@H](C)NC(=O)[C@H](Cc1c[nH]cn1)NC(=O)[C@H](C)NC(=O)[C@H](C)NC(=O)[C@H](CCCCN)NC(=O)[C@H](CCCCN)NC(=O)[C@H](Cc1ccccc1)NC(=O)[C@H](Cc1ccccc1)NC(=O)[C@H](CO)NC(=O)CNC(=O)[C@H](Cc1c[nH]c2ccccc12)NC(=O)CN)[C@@H](C)O)C(N)=O [Pleurocidin-VA] (H-GWGSFFKKAAHAGKHAGKAALTHYL-NH2; N-terminus assumed)
MIC, Stability in serum (MH) ([1]; No serum): 8 | MIC, Stability in serum (MH) ([1]; Serum (10% fetal bovine serum)): 16 | MIC on initial panels [1]: 4-8 | MIC [1]: 32 | MIC, Stability in serum (MH) (Klebsiella pneumoniae M6; No serum): 16 µg/mL (≈ 6.03 µM) | MIC, Stability in serum (MH) (Klebsiella pneumoniae M6; Serum (10% fetal bovine serum)): 8 µg/mL (≈ 3.01 µM) | MIC on initial panels (Klebsiella pneumoniae M6): 4-8 | MIC (Klebsiella pneumoniae M6): 32 | MIC, Peptide concentration [2]: 16 µg/mL (≈ 6.03 µM) | MIC, Stability in serum (MH) ([2]; No serum): 2 µg/mL (≈ 0.754 µM) | MIC, Stability in serum (MH) ([2]; Serum (10% fetal bovine serum)): 4 µg/mL (≈ 1.51 µM) | MIC on initial panels [2]: 2 | MIC [2]: 16 | MIC on initial panels [3]: 1-2 | MIC [3]: 32 | MIC, Stability in serum (MH) ([3]; No serum): 2 | MIC, Stability in serum (MH) ([3]; Serum (10% fetal bovine serum)): 4 | MIC, Stability in serum (MH) ([4]; No serum): 16* | MIC, Stability in serum (MH) ([4]; Serum (10% fetal bovine serum)): >128 | MIC on initial panels [4]: 32 | MIC [4]: >32 | MIC, Stability in serum (MH) ([5]; No serum): 1 µg/mL (≈ 0.377 µM) | MIC, Stability in serum (MH) ([5]; Serum (10% fetal bovine serum)): 1 µg/mL (≈ 0.377 µM) | MIC on initial panels [5]: 1 | MIC [5]: 32 | MIC, Peptide concentration ([5]; NCTC 12923): 1 µg/mL (≈ 0.377 µM) | MIC, Peptide concentration ([6]; ATCC 9144): 8 µg/mL (≈ 3.01 µM) | MIC on initial panels [6]: 8 µg/mL (≈ 3.01 µM) | MIC [6]: 32 | MIC on initial panels [7]: 64 µg/mL (≈ 24.1 µM) | MIC [7]: 32 µg/mL (≈ 12.1 µM) | MIC on initial panels [8]: 64-128 | MIC [8]: > 32 µg/mL | MIC, Peptide concentration [9]: 64-128 (NG) μg/ml | MIC on initial panels [9]: 64-128 | MIC on initial panels [10]: 32-64 | MIC [10]: 32 | MIC on initial panels (VRE12201): > 128 µg/mL | Toxicity HEK293 (HEK293): ~400 | Toxicity HEK293 (EC50), Peptide concentration (HEK293): (~400) μg/ml | Toxicity HeLa (HeLa): >400 | Toxicity HeLa (EC50), Peptide concentration (HeLa): (>400) μg/ml | Toxicity HC50, Peptide concentration (human red blood cells): >>400 μg/ml

CC(C)C[C@@H](NC(=O)[C@@H](Cc1ccc(O)cc1)NC(=O)[C@@H](Cc1c[nH]cn1)NC(=O)[C@H](NC(=O)[C@@H](CC(C)C)NC(=O)[C@@H](C)NC(=O)[C@@H](C)NC(=O)[C@@H](CCCNC(=N)N)NC(=O)CNC(=O)[C@H](NC(=O)[C@@H](Cc1c[nH]cn1)NC(=O)[C@@H](CCCNC(=N)N)NC(=O)CNC(=O)[C@H](NC(=O)[C@@H](Cc1c[nH]cn1)NC(=O)[C@@H](C)NC(=O)[C@@H](C)NC(=O)[C@@H](CCCNC(=N)N)NC(=O)[C@@H](CCCNC(=N)N)NC(=O)[C@@H](Cc1ccccc1)NC(=O)[C@@H](Cc1ccccc1)NC(=O)[C@@H](CO)NC(=O)CNC(=O)[C@@H](Cc1c[nH]c2ccccc12)NC(=O)CN)C(C)C)C(C)C)[C@H](C)O)C(N)=O [D-pleurocidin-KR] (HELM PEPTIDE1{G.[dW].G.[dS].[dF].[dF].[dR].[dR].[dA].[dA].[dH].[dV].G.[dR].[dH].[dV].G.[dR].[dA].[dA].[dL].[dT].[dH].[dY].[dL].[am]}$$$$V2.0; N-terminus assumed)
MIC, Stability in serum (MH) ([1]; No serum): 2 | MIC, Stability in serum (MH) ([1]; Serum (10% fetal bovine serum)): 1 | MIC on initial panels [1]: 2 | MIC [1]: 4 | MIC, Stability in serum (MH) (Klebsiella pneumoniae M6; No serum): 2 µg/mL (≈ 0.709 µM) | MIC, Stability in serum (MH) (Klebsiella pneumoniae M6; Serum (10% fetal bovine serum)): 0.5 µg/mL (≈ 0.177 µM) | MIC on initial panels (Klebsiella pneumoniae M6): 2 | MIC (Klebsiella pneumoniae M6): 4 | MIC, Stability in serum (MH) ([2]; No serum): 2 µg/mL (≈ 0.709 µM) | MIC, Stability in serum (MH) ([2]; Serum (10% fetal bovine serum)): 0.5 µg/mL (≈ 0.177 µM) | MIC on initial panels [2]: 2 | MIC [2]: 2 | MIC on initial panels [3]: 2 | MIC [3]: 4 | MIC, Stability in serum (MH) ([3]; No serum): 2 | MIC, Stability in serum (MH) ([3]; Serum (10% fetal bovine serum)): 0.5 | MIC, Stability in serum (MH) ([4]; No serum): 4 | MIC, Stability in serum (MH) ([4]; Serum (10% fetal bovine serum)): 8 | MIC on initial panels [4]: 4 | MIC [4]: 16 | MIC, Stability in serum (MH) ([5]; No serum): 1 µg/mL (≈ 0.354 µM) | MIC, Stability in serum (MH) ([5]; Serum (10% fetal bovine serum)): 0.25 µg/mL (≈ 0.0886 µM) | MIC on initial panels [5]: 1 | MIC [5]: 2 | MIC on initial panels [6]: 2 µg/mL (≈ 0.709 µM) | MIC [6]: 0.25-0.5 | MIC on initial panels [7]: 2 µg/mL (≈ 0.709 µM) | MIC [7]: 0.5 µg/mL (≈ 0.177 µM) | MIC, Peptide concentration [7]: 2 µg/mL (≈ 0.709 µM) | MIC, Peptide concentration ([7]; listed as D-PLEUROCIDIN-KR): 4 µg/mL (≈ 1.42 µM) | MIC on initial panels [8]: 4 | MIC [8]: 1 µg/mL (≈ 0.354 µM) | MIC, Peptide concentration [9]: 8 (NG) μg/ml | MIC on initial panels [9]: 8 | MIC on initial panels [10]: 2 | MIC [10]: 2 | MIC on initial panels (VRE12201): 8 µg/mL (≈ 2.83 µM) | Toxicity HEK293 (HEK293): 36.4 ± 4.3 | Toxicity HEK293 (EC50), Peptide concentration (HEK293): (36.4 ± 4.3) μg/ml | Toxicity HeLa (HeLa): 25.3 ± 2.2 | Toxicity HeLa (EC50), Peptide concentration (HeLa): (25.3 ± 2.2) μg/ml | therapeutic index over red blood cell haemolysis (human red blood cells): at least 100 fold | Toxicity HC50, Peptide concentration (human red blood cells): ~400 µg/mL
